The target in the assay is T1, human calcium receptor (Homo sapiens, UniProt P41180, R990G).
T1 construct: expressed in transfected cells; host or cells: HEK 293
T1 sequence (P41180 20-1078 R990G): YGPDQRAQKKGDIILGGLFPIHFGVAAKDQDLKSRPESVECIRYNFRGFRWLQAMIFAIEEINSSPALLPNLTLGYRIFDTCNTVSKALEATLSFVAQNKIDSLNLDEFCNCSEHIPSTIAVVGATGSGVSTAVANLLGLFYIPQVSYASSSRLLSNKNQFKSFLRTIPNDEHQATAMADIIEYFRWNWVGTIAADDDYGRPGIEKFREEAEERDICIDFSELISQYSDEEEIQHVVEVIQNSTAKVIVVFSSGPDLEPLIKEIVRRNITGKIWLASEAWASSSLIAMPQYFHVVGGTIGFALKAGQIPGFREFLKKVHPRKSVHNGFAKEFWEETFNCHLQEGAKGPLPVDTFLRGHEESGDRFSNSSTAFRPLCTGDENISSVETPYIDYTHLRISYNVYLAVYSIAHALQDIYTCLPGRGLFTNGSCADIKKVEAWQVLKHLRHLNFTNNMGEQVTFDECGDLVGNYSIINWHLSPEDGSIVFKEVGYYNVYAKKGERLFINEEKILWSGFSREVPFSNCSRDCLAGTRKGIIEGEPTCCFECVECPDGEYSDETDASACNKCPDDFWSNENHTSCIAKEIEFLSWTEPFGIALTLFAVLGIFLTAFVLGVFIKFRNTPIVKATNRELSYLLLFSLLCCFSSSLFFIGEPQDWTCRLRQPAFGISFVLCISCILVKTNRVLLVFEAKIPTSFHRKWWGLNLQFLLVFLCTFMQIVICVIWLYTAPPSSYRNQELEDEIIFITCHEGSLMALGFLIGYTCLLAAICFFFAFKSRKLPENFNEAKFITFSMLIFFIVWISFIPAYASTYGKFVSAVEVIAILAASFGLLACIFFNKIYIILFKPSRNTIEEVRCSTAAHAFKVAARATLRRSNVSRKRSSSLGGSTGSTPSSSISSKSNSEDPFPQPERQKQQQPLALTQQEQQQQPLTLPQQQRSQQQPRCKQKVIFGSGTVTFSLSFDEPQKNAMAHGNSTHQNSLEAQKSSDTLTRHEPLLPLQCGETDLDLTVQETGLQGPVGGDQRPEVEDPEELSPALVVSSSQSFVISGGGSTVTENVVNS
Nature of the assay: increases in [Ca^2+ ]i in HEK-293 cells expressing the human calcium receptor (fura-2 loaded HEK 293/pHuPCaR4.0 cells), % activity. It counts as cell-based.

Molecules are shown by their SMILES.

Take `COc1ccc(CN[C@H](C)c2cccc3ccccc23)cc1Cl.Cl` [Compound 17M, N-(3-chloro-4-methoxybenzyl)-(R)-1-(1-naphthyl) ethylamine hydrochloride]: the “% activity” value is, setting by setting: (33 ng/mL) 99%; (330 ng/mL) 115%.
Regarding `COc1ccc(CNC(C)c2ccc(OC)c3ccccc23)cc1C` (stereo not drawn) [Compound 18C], the “% activity” value by setting is: (33 ng/mL) 60%; (330 ng/mL) 87%; (3300 ng/mL) 99%.
Consider `COc1cccc([C@@H](C)NCCCc2cccc(OC(F)(F)F)c2)c1` [Compound 21M], for which the “% activity” value is, setting by setting: (33 ng/mL) 58%; (330 ng/mL) 102%.
Turning to `C[C@@H](NCc1ccc(I)cc1)c1cccc2ccccc12` [Compound 17E], the “% activity” value stood at 110% (33 ng/mL), 110% (330 ng/mL) and 116% (3300 ng/mL).
Take `COc1ccccc1CCCN[C@H](C)c1cccc2ccccc12` [Compound 16I]: the “% activity” value was 96% (33 ng/mL), 117% (330 ng/mL) and 121% (3300 ng/mL).
For `C[C@@H](NCCCc1cccc(C(F)(F)F)c1)c1cccc2ccccc12` [Compound 22J], the “% activity” value runs as follows: (33 ng/mL) 71%; (330 ng/mL) 99%.
As to `COc1cccc(C(C)NC(C)c2ccc(C(C)(C)C)cc2)c1` (mixture of isomers) [Compound 13G], the “% activity” value reads like this: (33 ng/mL) 82%; (330 ng/mL) 128%; (3300 ng/mL) 111%.
Turning to `CC(NCCCC1CCCCC1)c1ccccc1` (stereo not drawn) [Compound 1T], the “% activity” value (330 ng/mL) was 76%.
For `COc1ccc([C@H](C)N[C@@H](C)c2cccc3ccccc23)cc1C` [Compound 25V], the “% activity” value (33 ng/mL) came to 43%, the “% activity” value (330 ng/mL) is given as 59% and the “% activity” value (3300 ng/mL) came out at 89%.
The like results for `CC(c1ccc(C(C)(C)C)cc1)N(C)CCCc1ccccc1` (stereo not drawn) [Compound 14J] were, in that order, 6%, 41% and 55%.
Take `COc1cccc([C@@H](C)N[C@H](C)CCc2cccc(C(F)(F)F)c2)c1` [Compound 21Y, (R,R)-N-[4-(3-trifluoromethylphenyl)-2-butyl]-1-(3-methoxyphenyl)ethylamine]: the “% activity” value amounted to 68% (33 ng/mL) and 100% (330 ng/mL).
`COc1ccc(CNC(C)c2cccc(F)c2)cc1C` (stereo not drawn) [Compound 23K]: the “% activity” value stood at 72% (33 ng/mL), 107% (330 ng/mL) and 106% (3300 ng/mL).
The like results for `COc1cccc(C(C)NC(C)c2cccc3ccccc23)c1` (stereo not drawn) [Compound 14Z] were, in that order, 82%, 103% and 118%.
The like results for `COc1ccc(CN[C@H](C)c2cccc3ccccc23)c(C)c1C` [Compound 17L] were, in that order, 78%, 104% and 111%.
With `COc1ccc(CNC(C)c2cccc(C)c2)cc1C` (stereo not drawn) [Compound 23X], the “% activity” value turned out to be 49% (33 ng/mL) and 94% (330 ng/mL).
Turning to `COc1ccc(CNC(C)c2ccc(F)c(F)c2)cc1C` (stereo not drawn) [Compound 24I], the “% activity” value (33 ng/mL) turned out to be 55%, the “% activity” value (330 ng/mL) came out at 84% and the “% activity” value (3300 ng/mL) is listed as 109%.
Turning to `COc1cccc([C@@H](C)NCC=Cc2ccccc2)c1` [Compound 25E, (R)-N-(3-phenylprop-2-enyl)-1-(3-methoxyphenyl)ethylamine], the “% activity” value worked out at 122% (33 ng/mL), 129% (330 ng/mL) and 132% (3300 ng/mL).
With `C[C@@H](N[C@H](C)c1cccc2ccccc12)c1ccc2ccccc2c1.Cl` [Compound 9R, (R)-N-(1-(2-naphthyl)ethyl)-(R)-1-(1-naphthyl)ethylamine hydrochloride], the “% activity” value reads like this: (33 ng/mL) 101%; (330 ng/mL) 108%.
The like results for `CC(N[C@H](C)c1cccc2ccccc12)c1ccc2ccccc2c1` (stereo partly drawn) [Compound 8Z] were, in that order, 97% and 101%.
